Consider 13 compounds from patent US20250179103A1, “6-OXODECAHYDROPYRROLO[1,2-A][1,5]DIAZOCINE AND 6-OXODECAHYDRO-4H-PYRROLO[2,1-D][1,5]THIAZOCINE DERIVATIVES AS STAT3 AND STAT6 MODULATORS FOR THE TREATMENT OF CANCER AND INFLAMMATORY CONDITIONS” (Recludix Pharma, Inc., priority 2022, published 2025).

In this test the test system is pY641-STAT6 in Peripheral Blood Mononuclear Cells (PBMC). The experiment in a line: MSD-pSTAT-PBMC Assay (pSTAT6, IL-4 stimulated). The format is cell-based, Human. The following applies: Homo sapiens, compound 3 hrs, then 1 ng/mL IL-4 for 10 min. The text has this:
Cryopreserved Peripheral Blood Mononuclear Cells (PBMC) are from AllCells. Recombinant Human IL-4 and IL-6 are from Peprotech. Mouse monoclonal anti-STAT3 antibody, rabbit monoclonal anti-pY705-STAT3 antibody, rabbit monoclonal Anti-pY641-STAT6 antibody, and lysis buffer are from Cell Signaling Technology (CST). Mouse monoclonal anti-STAT6 antibody is from BioLegend. Assay plates, blocker, and anti-rabbit secondary antibody are from Meso Scale Discovery (MSD).
Cryopreserved PBMCs were thawed out and allowed to recover overnight in IMDM+10% heat-inactivated FBS prior to plating 50,000 (STAT3) or 25,000 (STAT6) cells per well in 96-well U-bottom tissue culture plates. Cells were treated with compound for 3 hrs, then stimulated with 10 ng/mL IL-6 (STAT3) or 1 ng/mL IL-4 (STAT6) for 10 min. Cells were then spun down and washed with ice-cold PBS prior to lysing the cell pellet with 1× lysis buffer (CST) with 1×HALT protease and phosphatase inhibitor cocktail (Thermo). Lysates were transferred to and incubated overnight at 4° C. with shaking in QuickPlex 96-well high bind assay plates (MSD) pre-coated overnight with 30 μL per well of 0.6 μg/mL mouse monoclonal anti-STAT3 antibody (STAT3) or 2 μg/mL mouse monoclonal anti-STAT6 antibody (STAT6) in 1×PBS, and pre-blocked for 1 hour with 3% Blocker-A (MSD). Captured protein in the assay plates were then washed and probed with 25 μL per well of 0.25 μg/ml rabbit monoclonal anti-pY705-STAT3 antibody (STAT3) or […] rabbit monoclonal Anti-pY641-STAT6 antibody (STAT6) in 1% Blocker-A for 1 hour at room temperature with shaking, then washed and probed with 25 ul per well of 1 ug/ml Sulfo-TAG Labeled Goat Anti-Rabbit Antibody (MSD) in 1% Blocker-A for 1 hour at room temperature with shaking. Assay plates were then washed and 150 μL of 1× Read Buffer-T (MSD) was added to each well prior to reading on an SQ120 MSD Plate Reader. Assay signal from each sample was subtracted by the signal from unstimulated control wells and normalized to DMSO control wells. IC50 values were calculated using Graph Pad Prism Dose-Response Nonlinear Regression with variable slope. For both pSTAT3 and pSTAT6 A=≤100 nM; B=>100-1000 nM; C=>1000-3000 nM; and D=>3 μM.

Some results are limits rather than exact numbers.

Compound `CCCOC(=O)[C@H](C)NP(=O)(Oc1ccccc1)C(F)c1ccc2ccc(C(=O)N[C@H]3CN(C(C)=O)CC[C@H]4CC[C@@H](C(=O)N5CC(c6ccn(C)c(=O)c6)CC56CC6)N4C3=O)cc2c1` (stereo partly drawn) [Compound 406, propyl (((7-(((5S,8S,10aR)-3-acetyl-8-(6-(1-methyl-2-oxo-1,2-dihydro-pyridin-4-yl)-4-azaspiro[2.4]heptane-4-carbonyl)-6-oxodeca-hydropyrrolo [1,2-a] [1,5]diazocin-5-yl)carbamoyl)naphthalen-2-yl)fluoromethyl) (phenoxy)phosphoryl)-L-alaninate] gave a half-maximal inhibitory concentration (IC50) of 0.1 to 1 µM. Take `CCCOC(=O)[C@H](C)NP(=O)(Oc1ccccc1)C(F)c1ccc2ccc(C(=O)N[C@H]3CN(C(=O)c4cc(Cl)c5nc(C)ccc5c4)CC[C@H]4CC[C@@H](C(=O)N5CCOCC5)N4C3=O)cc2c1` (stereo partly drawn) [Compound 407, propyl (((7-(((5S,8S,10aR)-3-(8-chloro-2-methylquinoline-6-carbonyl)-8-(morpholine-4-carbonyl)-6-oxodeca-hydropyrrolo [1,2-a][1,5]diazocin-5-yl)carbamoyl)naphthalen-2-yl)fluoromethyl) (phenoxy)phosphoryl)-L-alaninate]: the IC50 lay within 1 to 3 µM.

The compound `CCCOC(=O)[C@H](C)NP(=O)(Cc1ccc2ccc(C(=O)N[C@H]3CN(C(C)=O)CC[C@H]4CC[C@@H](C(=O)N5CC(c6ccn(C)c(=O)c6)CC56CC6)N4C3=O)cc2c1)Oc1ccccc1` (stereo partly drawn) [Compound 408, propyl (((7-(((5S,8S,10aR)-3-acetyl-8-(6-(1-methyl-2-oxo-1,2-dihydropyridin-4-yl)-4-azaspiro [2.4]heptane-4-carbonyl)-6-oxodeca-hydropyrrolo [1,2-a] [1,5]diazocin-5-yl)carbamoyl)naphthalen-2-yl)methyl) (phenoxy)phosphoryl)-L-alaninate] registered an IC50 of 1 to 3 µM. The value for `CCCOC(=O)[C@H](C)NP(=O)(Oc1ccccc1)C(F)c1ccc2ccc(C(=O)N[C@H]3CN(C(C)=O)CC[C@H]4CC[C@@H](C(=O)N5CCC(c6cccnc6)C5)N4C3=O)cc2c1` (stereo partly drawn) [Compound 409, propyl (((7-(((5S,8S,10aR)-3-acetyl-6-oxo-8-(3-(pyridin-3-yl)pyrrolidine-1-carbonyl)decahydropyrrolo [1,2-a] [1,5]diazocin-5-yl)carbamoyl)naphthalen-2-yl)fluoromethyl) (phenoxy)phosphoryl)-L-alaninate] was 1 to 3 µM; that for `CCCOC(=O)[C@H](C)NP(=O)(Oc1ccccc1)C(F)c1ccc2ccc(C(=O)N[C@H]3CN(C(=O)c4noc5ccc(C)cc45)CC[C@H]4CC[C@@H](C(=O)N5CCN(S(C)(=O)=O)CC5)N4C3=O)cc2c1` (stereo partly drawn) [Compound 410, propyl ((fluoro(7-(((5S,8S,10aR)-3-(5-methylbenzo [d]isoxazole-3-carbonyl)-8-(4-(methylsulfonyl)piperazine-1-carbonyl)-6-oxodeca-hydropyrrolo [1,2-a][1,5]diazocin-5-yl)carbamoyl)naphthalen-2-yl)methyl) (phenoxy)phosphoryl)-L-alaninate] was 0.1 to 1 µM. The same measure for `CCCOC(=O)[C@H](C)NP(=O)(Oc1ccccc1)C(F)c1ccc2ccc(C(=O)N[C@H]3CN(C(=O)c4noc5ccc(C)cc45)CC[C@H]4CC[C@@H](C(=O)N5CCN(c6nsc7ccccc67)CC5)N4C3=O)cc2c1` (stereo partly drawn) [Compound 411, propyl (((7-(((5S,8S,10aR)-8-(4-(benzo[d]isothiazol-3-yl)piperazine-1-carbonyl)-3-(5-methylbenzo [d]isoxazole-3-carbonyl)-6-oxodeca-hydropyrrolo [1,2-a][1,5]diazocin-5-yl)carbamoyl)naphthalen-2-yl)fluoromethyl) (phenoxy)phosphoryl)-L-alaninate]: above 3 µM; for `CCCOC(=O)[C@H](C)NP(=O)(Oc1ccccc1)C(F)c1ccc2ccc(C(=O)N[C@H]3CN(C(=O)c4noc5ccc(C)cc45)CC[C@H]4CC[C@@H](C(=O)N5CCOC[C@@H]5c5ccccc5)N4C3=O)cc2c1` (stereo partly drawn) [Compound 412, propyl ((fluoro(7-(((5S,8S,10aR)-3-(5-methylbenzo [d]isoxazole-3-carbonyl)-6-oxo-8-((S)-3-phenyl-morpholine-4-carbonyl)decahydro-pyrrolo [1,2-a][1,5]diazocin-5-yl)carbamoyl)naphthalen-2-yl)methyl) (phenoxy)phosphoryl)-L-alaninate]: 0.1 to 1 µM; for `CCCOC(=O)[C@H](C)NP(=O)(Oc1ccccc1)C(F)c1ccc2ccc(C(=O)N[C@H]3CN(C(=O)c4noc5ccc(C)cc45)CC[C@H]4CC[C@@H](C(=O)N5CCOC[C@H]5c5ccccc5)N4C3=O)cc2c1` (stereo partly drawn) [Compound 413, propyl ((fluoro(7-(((5S,8S,10aR)-3-(5-methylbenzo [d]isoxazole-3-carbonyl)-6-oxo-8-((R)-3-phenyl-morpholine-4-carbonyl)decahydro-pyrrolo [1,2-a][1,5]diazocin-5-yl)carbamoyl)naphthalen-2-yl)methyl) (phenoxy)phosphoryl)-L-alaninate]: at most 0.1 µM.

The compound `CCCOC(=O)[C@H](C)NP(=O)(Oc1ccccc1)C(F)c1ccc2ccc(C(=O)N[C@H]3CN(C(=O)c4noc5ccc(C)cc45)CC[C@H]4CC[C@@H](C(=O)N5C[C@@H]6C[C@H]5CO6)N4C3=O)cc2c1` (stereo partly drawn) [Compound 414, propyl (((7-(((5S,8S,10aR)-8-((1S,4S)-2-oxa-5-azabicyclo [2.2.1]heptane-5-carbonyl)-3-(5-methylbenzo [d]isoxazole-3-carbonyl)-6-oxodeca-hydropyrrolo [1,2-a][1,5]diazocin-5-yl)carbamoyl)naphthalen-2-yl)fluoromethyl) (phenoxy)phosphoryl)-L-alaninate] displayed an IC50 of at most 0.1 µM. In the case of `CCCOC(=O)[C@H](C)NP(=O)(Oc1ccccc1)C(F)c1ccc2ccc(C(=O)N[C@H]3CN(C(=O)c4noc5ccc(C)cc45)CC[C@H]4CC[C@@H](C(=O)N5CCOC(Cc6ccccc6)C5)N4C3=O)cc2c1` (stereo partly drawn) [Compound 415, propyl (((7-(((5S,8S,10aR)-8-(2-benzyl-morpholine-4-carbonyl)-3-(5-methylbenzo [d]isoxazole-3-carbonyl)-6-oxodeca-hydropyrrolo [1,2-a][1,5]diazocin-5-yl)carbamoyl)naphthalen-2-yl)fluoromethyl) (phenoxy)phosphoryl)-L-alaninate], the IC50 was 0.1 to 1 µM. On to `CCCOC(=O)[C@H](C)NP(=O)(Oc1ccccc1)[C@@H](F)c1ccc2ccc(C(=O)N[C@H]3CN(C(=O)c4noc5ccc(C)cc45)CC[C@H]4CC[C@@H](C(=O)N5CC6CCC(C5)O6)N4C3=O)cc2c1` (stereo partly drawn) [Compound 416, propyl (((1R)-(7-(((5S,8S,10aR)-8-(8-oxa-3-azabicyclo [3.2.1]octane-3-carbonyl)-3-(5-methylbenzo [d]isoxazole-3-carbonyl)-6-oxodeca-hydropyrrolo [1,2-a][1,5]diazocin-5-yl)carbamoyl)naphthalen-2-yl)fluoromethyl) (phenoxy)phosphoryl)-L-alaninate], for which the IC50 is at most 0.1 µM.

Take `CCCOC(=O)[C@H](C)NP(=O)(Oc1ccccc1)[C@H](F)c1ccc2ccc(C(=O)N[C@H]3CN(C(=O)c4noc5ccc(C)cc45)CC[C@H]4CC[C@@H](C(=O)N5C[C@@H](c6ccn(C)c(=O)c6)CC56CC6)N4C3=O)cc2c1` (stereo partly drawn) [Compound 417, propyl (((S)-fluoro(7-(((5S,8S,10a R)-8-((R)-6-(1-methyl-2-oxo-1,2-dihydro-pyridin-4-yl)-4-azaspiro[2.4]heptane-4-carbonyl)-3-(5-methylbenzo [d]isoxazole-3-carbonyl)-6-oxodeca-hydropyrrolo [1,2-a][1,5]diazocin-5-yl)carbamoyl)naphthalen-2-yl)methyl) (phenoxy)phosphoryl)-L-alaninate]: the IC50 is at most 0.1 µM.

The compound `CCCOC(=O)[C@H](C)NP(=O)(Oc1ccccc1)[C@@H](F)c1ccc2ccc(C(=O)N[C@H]3CN(C(=O)c4noc5ccc(C)cc45)CC[C@H]4CC[C@@H](C(=O)N5C(=O)N(c6cccnc6)C(=O)C56CC6)N4C3=O)cc2c1` (stereo partly drawn) [Compound 418, propyl (((R)-(7-(((5S,8S,10aR)-8-(5,7-dioxo-6-(pyridin-3-yl)-4,6-diazaspiro [2.4]heptane-4-carbonyl)-3-(5-methylbenzo [d]isoxazole-3-carbonyl)-6-oxodeca-hydropyrrolo [1,2a][1,5]diazocin-5-yl)carbamoyl)naphthalen-2-yl)fluoromethyl) (phenoxy)phosphoryl)-L-alaninate] had an IC50 of at most 0.1 µM.
